Experimental data as given in EP1762239A1, “Lofexidine for intraspinal administration” (Texcontor Etablissement, priority 2005, dated 2007).
Where “and” joins values, the source holds several entries; their conditions need not be identical. Equal entries are not always repeated. Structures can show the parent of a compound that is named as a salt. Marks after values point to notes of the source that are not given here.

How the values were obtained:
[1] = given orally; dosages of up to 1200 µg per day; Human Reproduction, Vol. 16, No. 8, 2001; cited from earlier work
[2] = Brief observation of general behavior after intrathecal injection; format: in vivo, Wistar rats; conditions: 0.00032 mg/rat and 0.0032 mg/rat (ITH)
Procedure: Evaluation for pain was performed at 24 hours postoperatively between 08:00 and 16:00h. Each animal was monitored at 15, 30, 60 and 120 minutes after intrathecal administration of lofexidine.HCl. The rats were placed under inverted plexiglas cages on a wire mesh rack and a brief observation of general behavior post-injection was made. The rigid tip part of the Electronic Von Frey Aesthesiometer was applied perpendicularly from underneath the mesh floor to the four points around the wound surface of the animal with slow upward force against the paw. A positive response to tactile pressure was recorded if the paw was sharply withdrawn; ambulation was considered an ambiguous response, and in such cases, the stimulus was reapplied. Mean values from 4 points for each rat and from 5 rats in each group were calculated. Percent inhibition due to treatment relative to pre-treatment pain response was calculated according to the formula: Tactile Pressure [(Post-Treatment) - (Pre-Treatment)]/[(Pre-Incision) - (Pre-Treatment)] x 100%. Inhibition by 50% or more (≥50%) is considered significant analgesic effect. Unpaired Student's t test is applied for comparison of the % inhibition values between test substance-and vehicle-treated groups. Significance is considered at P<0.05 level

[3] = systemically (e.g. orally or by intravenous injection), especially at high doses (e.g. >600 µg per day); cited from earlier work
[4] = tested on: rat model of post-operative pain; test: Rat model of post-operative pain (plantar incision), tactile allodynia by electronic von Frey; format: in vivo, Wistar rats; conditions: for Tactile Pressure (g) Post-treatment 15min. / Tactile Pressure (g) Post-treatment 30min. / Tactile Pressure (g) Post-treatment 60min. / Tactile Pressure (g) Post-treatment 120 min.: 24 hours after surgery, single readings at 4 points per rat; for Tactile Pressure (g) Post-treatment 15min. Ave. / Tactile Pressure (g) Post-treatment 30min. Ave. / Tactile Pressure (g) Post-treatment 60min. Ave. / Tactile Pressure (g) Post-treatment 120 min. Ave.: average of 4 points; for Tactile Pressure (g) Post-treatment 15min. Mean / Tactile Pressure (g) Post-treatment 30min. Mean / Tactile Pressure (g) Post-treatment 60min. Mean / Tactile Pressure (g) Post-treatment 120 min. Mean: group mean of 5 rats; for Δ Treatment 15min. / Δ Treatment 30min. / Δ Treatment 60min. / Δ Treatment 120 min.: (Post-Treatment) - (Pre-Treatment)
Procedure: Lofexidine at 0.00032 and 0.0032 mg/rat injected intrathecally (ITH) was evaluated for possible analgesic activity in a rat model of post-operative pain which was induced with an incision made on the plantar surface of the hind paw. To measure tactile allodynia, a supertip with a flattened surface connected to Electrovonfrey Aesthethiometer (IITC, USA) was applied slowly and gently onto the plantar surface of the hind paw, where 4 points around the incision were identified. The endpoint is the mean withdrawal threshold values (gm) in response to von Frey filament, serving as a measure of analgesic activity. Percent inhibition was calculated as Δ treatment values (change in threshold pressure caused by treatment) relative to Δ blank values (change in threshold value caused by incision). Lofexidine.HCl was dissolved in 0.9% NaCl and at doses of 0.00032 and 0.0032 mg/rat was administered intrathecally (ITH). The dosing volume was 10 µl/rat. Male Wistar derived rats weighing 270 ± 30 g provided by BioLasco Taiwan (under Charles River Laboratories Technology licensee) were used. Space allocation for animals was 45 x 23 x 15 cm for 6 rats. Animals were housed in APEC^R cages. All animals were maintained in a controlled temperature (22-24°C) and humidity (60%-80%) environment with 12 hours light dark cycles for at least one week in MDS Pharma Services-Taiwan Laboratory prior to use. Free access to standard lab chow (Lab Diet, Rodent Diet, PMI Nutrition International, USA) and tap water was granted. All aspects of this work including housing, experimentation and disposal of animals were performed in general accordance with the Guide for the Care and Use of Laboratory Animals (National Academy Press, Washington, D. C, 1996). Groups of 5 male Wistar rats weighing 270 ± 30 g were used. Prior to surgery, individual animals were acclimatised to the testing environment and baseline responses to Electronic Von Frey Aesthesiometer (2290CE Electrovonfrey®, IITC, USA) with a rigid tip were performed (Pre-Incision). Under pentobarbital (50 mg/kg, 5 ml/kg, i.p.) anesthesia, the left hind paw was aseptically prepared. A 1-cm longitudinal incision was made with a number 11 blade, through the skin and fascia of the plantar aspect of the foot, starting 0.5 cm from the proximal edge of the heel and extending toward the toes. The plantaris muscle was elevated and incised longitudinally, followed by crushing with a mosquito hemostat for 20 seconds. The muscle origin and insertion remained intact After hemostasis with gentle pressure, the skin and fascia were then closed as one layer using 4-0 silk suture. Evaluation for pain was performed at 24 hours postoperatively between 08:00 and 16:00h. Each animal was monitored at 15, 30, 60 and 120 minutes after intrathecal administration of lofexidine.HCl. The rats were placed under inverted plexiglas cages on a wire mesh rack and a brief observation of general behavior post-injection was made. The rigid tip part of the Electronic Von Frey Aesthesiometer was applied perpendicularly from underneath the mesh floor to the four points around the wound surface of the animal with slow upward force against the paw. A positive response to tactile pressure was recorded if the paw was sharply withdrawn; ambulation was considered an ambiguous response, and in such cases, the stimulus was reapplied. Mean values from 4 points for each rat and from 5 rats in each group were calculated. Percent inhibition due to treatment relative to pre-treatment pain response was calculated according to the formula: Tactile Pressure [(Post-Treatment) - (Pre-Treatment)]/[(Pre-Incision) - (Pre-Treatment)] x 100%. Inhibition by 50% or more (≥50%) is considered significant analgesic effect. Unpaired Student's t test is applied for comparison of the % inhibition values between test substance-and vehicle-treated groups. Significance is considered at P<0.05 level

[5] = 0.00032 mg/rat ITH, individual rat
[6] = 0.00032 mg/rat ITH, group, Δ Treatment/Δ Blank x 100%
[7] = 0.00032 mg/rat ITH, group, Δ Blank 30.2
[8] = 0.0032 mg/rat ITH, individual rat
[9] = 0.0032 mg/rat ITH, group, Δ Treatment/Δ Blank x 100%, ≥50% considered significant
[10] = 0.0032 mg/rat ITH, group, Δ Blank 32.9

For `CC(Oc1c(Cl)cccc1Cl)C1=NCCN1` (stereo not drawn) [Lofexidine HCl], the “effectiveness for treatment of chronic pelvic pain” value [1] is listed as “not effective”, the “behavioral changes in treated animals” value [2] is listed as “did not cause behavioral changes” and the “gait after intrathecal injection” value ([2]; all treated animals) is listed as “normal gait”. For the same compound, the “common symptoms associated with use” value [3] was “drowsiness, sedation and blood pressure and heart rate increases”, the analgesic effect ([4]; 0.00032 mg/rat ITH) was “slight analgesic effect” and the “Tactile Pressure (g) Post-treatment 15min.” value ([4]; 0.00032 mg/rat ITH) was 26.6 g and 26.9 g and 28.6 g and 23.1 g (2×) and 21.6 g and 17.6 g and 23.3 g and 15.5 g and 18.4 g and 21.1 g and 19.3 g and 23.6 g and 20.5 g and 24.6 g and 20.1 g and 17.9 g and 19.2 g and 14.4 g and 20.6 g. The “Tactile Pressure (g) Post-treatment 30min.” value ([4]; 0.00032 mg/rat ITH) was 25.9 g and 23.6 g and 32.5 g and 18.6 g and 25.7 g and 28.4 g and 26.0 g and 20.6 g and 22.3 g and 20.4 g and 17.3 g and 24.6 g and 21.6 g and 22.5 g and 24.4 g and 24.3 g and 20.0 g and 19.4 g and 18.2 g and 19.2 g, the “Tactile Pressure (g) Post-treatment 60min.” value ([4]; 0.00032 mg/rat ITH) was 23.3 g and 27.3 g and 23.6 g and 26.6 g and 22.9 g and 19.7 g (2×) and 24.4 g and 19.2 g and 19.9 g and 20.3 g and 22.6 g and 18.4 g and 25.1 g and 21.2 g and 22.0 g and 16.2 g and 21.1 g and 20.5 g and 21.6 g and the “Tactile Pressure (g) Post-treatment 120 min.” value ([4]; 0.00032 mg/rat ITH) was 20.6 g (3×) and 21.0 g (2×) and 17.2 g and 19.9 g (2×) and 24.3 g and 21.2 g and 18.9 g and 21.6 g and 22.0 g and 18.0 g and 20.3 g and 22.4 g (2×) and 23.9 g and 18.6 g and 16.8 g. The “Tactile Pressure (g) Post-treatment 15min. Ave.” value [4, 5] was 26.3 g and 21.4 g and 18.6 g and 22.2 g and 18.0 g, the “Tactile Pressure (g) Post-treatment 30min. Ave.” value [4, 5] was 25.2 g (2×) and 21.2 g and 23.2 g and 19.2 g and the “Tactile Pressure (g) Post-treatment 60min. Ave.” value [4, 5] was 25.2 g and 21.6 g and 20.3 g and 22.0 g and 19.9 g. For the same compound, the “Tactile Pressure (g) Post-treatment 120 min. Ave.” value [4, 5] was 19.7 g and 21.4 g and 21.2 g (2×) and 19.4 g, the “Tactile Pressure (g) Post-treatment 15min. Mean” value ([4]; 0.00032 mg/rat ITH) was 21.3 g and the “Tactile Pressure (g) Post-treatment 30min. Mean” value ([4]; 0.00032 mg/rat ITH) was 22.8* g. For the same compound, the “Tactile Pressure (g) Post-treatment 60min. Mean” value ([4]; 0.00032 mg/rat ITH) was 21.8 g, the “Tactile Pressure (g) Post-treatment 120 min. Mean” value ([4]; 0.00032 mg/rat ITH) was 20.6 g and the “%Inh 15min.” value [4, 6] was 2.6%. For the same compound, the “%Inh 30min.” value [4, 6] was 7.6%, the “%Inh 60min.” value [4, 6] was 4.3% and the “%Inh 120 min.” value [4, 6] was 0.3%. For the same compound, the “Δ Treatment 15min.” value [4, 7] was 0.8 g, the “Δ Treatment 30min.” value [4, 7] was 2.3 g and the “Δ Treatment 60min.” value [4, 7] was 1.3 g. The “Δ Treatment 120 min.” value [4, 7] was 0.1 g, the “%Inh 15min.” value [4, 5] was 14.9% and 2.5% and -5.6% and 8.0% and -7.4% and the “%Inh 30min.” value [4, 5] was 11.1% and 12.8% and 4.1% and 11.4% and -3.2%. For the same compound, the “%Inh 60min.” value [4, 5] was 11.1% and 3.0% and 0.8% and 7.4% and -0.7%, the “%Inh 120 min.” value [4, 5] was -7.4% and 2.5% and 4.1% and 4.7% and -2.5% and the “Tactile Pressure (g) Post-treatment 15min.” value ([4]; 0.0032 mg/rat ITH) was 48.4 g and 47.2 g and 55.3 g and 30.4 g and 23.5 g and 48.7 g and 43.0 g and 36.2 g and 32.4 g and 33.8 g and 21.4 g and 31.9 g and 37.7 g and 42.5 g (2×) and 34.5 g and 30.5 g and 40.7 g and 60.0 g and 40.6 g. For the same compound, the “Tactile Pressure (g) Post-treatment 30min.” value ([4]; 0.0032 mg/rat ITH) was 36.4 g and 34.8 g and 44.1 g and 39.3 g and 34.1 g and 44.0 g and 38.1 g and 36.5 g and 36.8 g and 28.8 g and 30.3 g and 33.2 g and 34.5 g and 40.1 g and 37.2 g and 26.8 g and 27.7 g and 44.2 g and 54.3 g and 50.8 g, the “Tactile Pressure (g) Post-treatment 60min.” value ([4]; 0.0032 mg/rat ITH) was 33.6 g and 35.6 g and 35.5 g and 36.7 g and 29.0 g and 28.5 g and 40.6 g and 31.8 g and 16.1 g and 16.5 g and 21.8 g and 16.6 g and 24.3 g and 26.8 g and 21.3 g and 21.1 g and 31.3 g and 41.3 g and 32.5 g and 49.5 g and the “Tactile Pressure (g) Post-treatment 120 min.” value ([4]; 0.0032 mg/rat ITH) was 29.3 g and 21.6 g (2×) and 20.4 g and 19.2 g and 22.9 g and 22.1 g and 21.4 g and 14.5 g and 21.5 g and 17.6 g and 18.8 g and 16.2 g and 22.6 g and 24.7 g and 18.6 g and 31.1 g and 28.6 g and 27.9 g and 28.7 g. The “Tactile Pressure (g) Post-treatment 15min. Ave.” value [4, 8] was 45.3 g and 37.9 g and 29.9 g and 36.3 g and 46.0 g, the “Tactile Pressure (g) Post-treatment 30min. Ave.” value [4, 8] was 38.7 g and 38.2 g and 32.3 g and 34.7 g and 44.3 g and the “Tactile Pressure (g) Post-treatment 60min. Ave.” value [4, 8] was 35.4 g and 32.5 g and 17.8 g and 23.4 g and 38.7 g. The “Tactile Pressure (g) Post-treatment 120 min. Ave.” value [4, 8] was 22.6 g and 22.0 g and 18.1 g and 20.5 g and 29.1 g, the “Tactile Pressure (g) Post-treatment 15min. Mean” value ([4]; 0.0032 mg/rat ITH) was 39.1* g and the “Tactile Pressure (g) Post-treatment 30min. Mean” value ([4]; 0.0032 mg/rat ITH) was 37.6* g. The “Tactile Pressure (g) Post-treatment 60min. Mean” value ([4]; 0.0032 mg/rat ITH) was 29.6 g, the “Tactile Pressure (g) Post-treatment 120 min. Mean” value ([4]; 0.0032 mg/rat ITH) was 22.5 g and the “%Inh. 15 min.” value [4, 9] was “(55.9) %”. The “%Inh. 30min.” value [4, 9] was “(51.4) %”, the “%Inh. 60min.” value [4, 9] was 27.1% and the “%Inh. 120 min.” value [4, 9] was 5.5%. For the same compound, the “Δ Treatment 15min.” value [4, 10] was 18.4 g, the “Δ Treatment 30min.” value [4, 10] was 16.9 g and the “Δ Treatment 60min.” value [4, 10] was 8.9 g. The “Δ Treatment 120 min.” value [4, 10] was 1.8 g, the “%Inh 15min.” value [4, 8] was 67.7% and 46.2% and 39.2% and 41.8% and 84.2% and the “%Inh 30min.” value [4, 8] was 48.4% and 47.0% and 47.7% and 36.7% and 78.8%. For the same compound, the “%Inh 60min.” value [4, 8] was 38.7% and 32.5% and -3.5% and 0.9% and 60.8%, the “%Inh 120 min.” value [4, 8] was 1.2% and 5.8% and -2.5% and -8.2% and 29.9% and the “analgesic effect against post-operative pain” value ([4]; 0.0032 mg/rat intrathecal, at 15 and 30 minute time points, compared with Δ blank values) was “demonstrated analgesic effect”.
